{
  "source": "patent US20050037450A1",
  "about": "“Novel targets for lithium therapy” (Duke University, priority 2002, published 2005)",
  "key": {"[1]": {"system": "intracellular PAP in wild type yeast", "experiment": "Intracellular PAP concentration by GST-PST binding assay, wild type yeast", "assay_type": "cell-based, S. cerevisiae", "procedure": "Yeast were grown in CM/ura^− containing 2% galactose to mid-log phase. The cultures were washed extensively and resuspended in the CM/ura^−/met^− media with the noted inclusions. PAP was measured using the ligand binding assay described in Experimental Procedures. Intracellular PAP concentrations were normalized to the amount of soluble protein extracted from the cultures.\nFor the assay of intracellular PAP concentrations, appropriate yeast strains were grown in CM/ura^− to mid-log phase (OD600=1.0). The cells were centrifuged and washed extensively in sterile water. The cells were resuspended in CM/ura^−/met^− containing methionine (20 μg/ml), lithium, or chlorate as appropriate. The cultures were incubated with shaking at 30° C. At various time points, 2 ml of culture was removed and centrifuged. The cells were washed with 1 ml of water. 250 μl was centrifuged and resuspended in 200 μl K-lysis buffer. 200 μl of glass beads were added, and the cells were disrupted by vigorous bead beating. The amount of soluble protein in this extract was determined using a Bradford dye-binding assay (BioRad, Hercules, Calif., United States of America) with bovine serum albumin as a standard. The remaining 750 μl of washed cells was spun down and resuspended in 250 μl of 2 N HClO4. This was incubated at 4° C. for 20 min, when 250 μl of 1.8 N KOH, 0.4 N KHCO3 were added to neutralize and precipitate the HClO4. The extract was centrifuged at 4° C. to remove the debris, and the supernatant was lyophilized using a rotary evaporator. The dried extracts were frozen at −80° C. for no more than one week prior to use. Extracts were reconstituted in 100 μL of 200 mM HEPES, pH 7.5 and again centrifuged to remove debris. 5′ [^32P] 3′, 5′ PAP was created as described (Spiegelberg, 1999). The GST-PST assay was performed by mixing 10 μL of standard PAP, treated as above, or 10 μL of sample diluted approximately 1:1000 in K-lysis buffer, with 10 μL of radiolabeled PAP (approximately 10,000 CPM). Eighty microliters of a reaction mix containing 100 mM HEPES, pH 7.0, 5 mM DTT, 0.2 mg/ml BSA, and 1 μg of GST-PST were added to start the binding reaction. The reactions were allowed to equilibrate for at least one hour at room temperature. Following incubation, 20 μl of a 50:50 slurry of glutathione sepharose in K-lysis buffer was added. The tubes were incubated with gentle mixing for 10 min at room temperature. The protein with bound PAP was pulled down by centrifugation for 2 min at room temperature. 80 μl of the supernatant, containing free PAP, was removed to a scintillation vial and 200 μl of K-lysis buffer was added to wash the resin. The tubes were centrifuged again and the 200 μl wash was transferred to the original scintillation vials. Radioactivity was determined by adding 5 ml of […] ECONO2™ scintillation fluid (Fisher Scientific, Hampton, N.H., United States of America) and counted in a liquid scintillation counter. The counts were converted to percent isotope bound, and a standard curve was prepared by plotting percent bound vs. the logarithm of the PAP concentration. […]\nThe GST-PST binding assay was used to determine relative intracellular PAP concentrations in yeast strains grown under various conditions. The PAP concentration determined in the binding assay was normalized to the total soluble protein in parallel extracts, and background was eliminated by reporting only the signal that was sensitive to in vitro degradation by purified recombinant Hal2p. […]"}, "[2]": {"target": "T1, 1ptase D54A (aspartate to alanine) (Bos taurus, UniProt P21327, D54A)", "T1 sequence (P21327 1-400 D54A)": "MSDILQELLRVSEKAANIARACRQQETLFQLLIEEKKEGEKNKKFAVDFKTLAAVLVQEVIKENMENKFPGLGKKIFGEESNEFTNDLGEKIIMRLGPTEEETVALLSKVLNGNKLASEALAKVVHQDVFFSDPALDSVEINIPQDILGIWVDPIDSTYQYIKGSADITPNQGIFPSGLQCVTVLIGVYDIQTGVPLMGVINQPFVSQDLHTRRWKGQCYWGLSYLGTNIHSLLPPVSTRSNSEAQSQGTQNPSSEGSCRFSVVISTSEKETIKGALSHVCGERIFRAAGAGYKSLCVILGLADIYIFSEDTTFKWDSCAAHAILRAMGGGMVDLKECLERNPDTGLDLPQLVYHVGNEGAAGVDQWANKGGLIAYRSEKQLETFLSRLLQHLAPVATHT", "experiment": "Lithium inhibition of 1ptase D54A mutant", "assay_type": "biochemical, bovine", "excerpt": "Low concentrations of lithium and high concentrations of normally catalytic magnesium inhibit Impase and 1ptase uncompetitively with respect to substrate. The inhibitory effects of lithium and magnesium are mutually exclusive in Impase, implying that the inhibitory metals bind at the same or overlapping sites (Ganzhorn, 1990). Structural studies of 1ptase offered additional evidence. […] This was interpreted to mean that electron-poor lithium was bound at the second metal binding site, excluding the binding of electron-rich gadolinium, leading to a dearth of electron density at this site. This conclusion was supported by mutagenic data in which a residue that anchors the second metal binding site, Asp-54 (homologous to Impase Asp-47 (FIGS. 1 and 2)), was mutated to alanine.\nFIG. 24 summarizes the results of mutagenic and crystallography experiments representing the lithium binding site in 1ptase. […] When 1ptase was crystallized in the presence of metal and lithium, however, the density at metal site 2 disappeared. This is explained by the fact that lithium, having only 2 electrons, is invisible (right panel). Therefore, loss of occupancy at metal site 2 is a result of invisible lithium binding there, excluding the binding of more electron rich metals. […]"}},
  "data": [
    {"smiles": "[Li]", "note": "[lithium]", "values": [
      {"measurement": "Fold increase of PAP concentration", "setting": "[1]", "result": "at least 85.8 fold"},
      {"measurement": "Intracellular PAP concentration", "setting": "[1]; wild type, 100 mM LiCl, 8 hr, absence of methionine, normalized to soluble protein", "result": 42.9, "unit": "nmol/mg"},
      {"measurement": "Ki", "setting": "[2]", "result": 100, "unit": "mM"}
    ]}
  ]
}
